Where a SMILES comes first, the peptide text is derived from it. [ ]: non-standard residue; d: D form. AEEA = NCCOCCOCC(=O)O
How the values were obtained:
C57BL/6 mice [1] = assay: contact hypersensitivity model (DNFB-induced contact dermatitis); format: in vivo
Protocol: FIG. 2—Peptide administration reduces inflammation in a mouse model of contact dermatitis and reduces myeloid inflammatory infiltrate. (A) Experimental outline of DNFB-induced contact dermatitis. (B) Ear thickness of peptide RP23 (SEQ ID NO:12) treated mice, repeated 3 times. […] Data are presented as mean±S.E.M. Statistical significance was determined (B) by multiple t tests (C) by ANOVA with Dunnett's multiple comparison test, *p<0.05, **p<0.01, ***p<0.001.
FIG. 3—The peptide effect is dependent on the peptide sequence and dose. (A) PBS, scrambled peptide or peptide MUC1SP ([…]; SEQ ID NO: 3) was injected subcutaneously seven days prior to sensitising C57BL/6 mice (n=5) with DNFB on the abdomen. […] (B) A comparison of the immunosuppressive effect of peptide RP23 (SEQ ID NO:12) and MUC1SP (SEQ ID NO: 3). (C) SEQ ID NO:12 suppressed immunity in a dose dependent manner. (D) Addition of GM-CSF to the SEQ ID NO:12 injection abrogated the immune suppression. Data are the means±S.E.M.
FIG. 8—Effects of peptide variants on the inflammatory response. Mice received one injection of PBS or one of the following peptides (10 nmol) subcutaneously at the abdomen (A) peptide RP23 (SEQ ID NO: 12), peptide AF594-RP23 (SEQ ID NO: 21), peptide K4-G3-MUC1SP (SEQ ID NO:22) or MUC1SP C fragment (SEQ ID NO: 2). Five days later, mice were challenged with DNFB at a distal site, on the ears. The thickness of the ears was measured over 72 hours.
FIG. 9—Effects of further peptide variants, without N-terminal methionine, on the inflammatory response in a model of contact dermatitis. Mice received one injection of PBS, RP23 (SEQ ID NO:12) (10 nmol) or one of the peptide variants indicated in the table including SEQ ID NO: 32 and 35 as described herein (equivalent molar amount of RP23), subcutaneously at the abdomen. Photoleucine replaces leucine where indicated, these molecules used for photo-crosslinking studies. Seven days later, abdominal skin was sensitised with a contact irritant (DNFB) and five days later, mice were challenged with DNFB at a distal site, on the ears. (A) Specific increase in ear thickness over 72 hours, data are the means+/−SEM (n=6). Statistical significance was determined by ANOVA with Dunnett's multiple comparison test to PBS only control, **p<0.01. (B) Specific increase in ear thickness at 24 hours post-challenge. Data are the means+/−SEM (n=6). Statistical significance was determined by t-test to relevant control, as indicated, *p<0.05, **p<0.01, ns=not significant.
The abdomens of 8-week old female C57BL/6 mice (Australian BioResources) were coarse shaved. A minimum of 24 hours later, RP23 (SEQ ID NO:12) was delivered via sub-cutaneous injection at the abdomen in 50 μl phosphate buffered saline. Seven days later, mice were topically sensitised to 1-fluoro-2,4-dinitrobenzene (DNFB, 0.5 vol %) in olive oil/acetone (1:4, v/v, 30 μl) via application to the shaved abdomen. Five days after sensitisation, mice were challenged on the ears with topical DNFB (0.25 vol %) in olive oil/acetone (1:4, v/v, 15 μl per ear). Ear thickness was measured daily using manual callipers from immediately before challenge, up to 96 hours post challenge. Positive controls for ear swelling consisted of mice that were injected with PBS instead of RP23. Negative or irritant controls consisted of a group of mice that received the DNFB challenge, but not the sensitisation. The average of the change in ear thickness from this control group was subtracted from the change in ear thickness of other samples to account for non-specific irritation due to the application of DNFB, olive oil and acetone.
The inventors then conducted additional in vivo studies, using a model of contact hypersensitivity, to determine the portion of RP23 responsible for its immunomodulatory activity. Mice received one injection of peptide (10 nmol) subcutaneously at the abdomen, seven days prior to sensitisation of the skin with a contact irritant (DNFB). […]

C57BL/6 mice [2] = assay: T-cell subsets by flow cytometry in imiquimod-induced psoriasis model; format: in vivo
Protocol: FIG. 11. RP23 treatment reduces TCRαβ^+ T-cells in the back skin and increases CD4^+ T-regulatory cells in the lymph nodes of mice in an imiquimod-induced psoriasis model. C57BL/6 female mice received PBS or RP23 injection at day −1, then Aldara cream (5% imiquimod, 57.5 mgs) was applied daily (days 0-4) to the backs to induce psoriasis. At day 15, skin and inguinal lymph nodes were analysed by flow cytometry to quantitate (A) T-cell subsets as a proportion of total leukocytes (CD45^+) in the psoriatic back skin, (B) number of CD3^+CD4^+ TCRαβ T-cells in the skin draining lymph nodes (inguinal), with transcription factor staining, to identify cells with a regulatory phenotype (FoxP3^+). Data are the means+/−SEM (n=4-5). Statistical significance was determined by multiple t-tests, *p<0.05.
C57BL/6 female mice received PBS or RP23 injection at day −1, then Aldara cream (5% imiquimod, 57.5 mgs) was applied daily (days 0-4) to the backs of mice to induce psoriasis. At day 15, skin and inguinal lymph nodes were analysed by flow cytometry to quantitate T-cell subsets as a proportion of total leukocytes (CD45+) in the psoriatic back skin, (FIG. 11A).
CD3+CD4+ TCRαβ T-cells in the skin draining lymph nodes (inguinal) were phenotyped by transcription factor staining and flow cytometry to identify cells with a regulatory phenotype (i.e., FoxP3+).

[3] = system: full thickness human skin explants
Protocol: RP23^AF594 in a stock emulsion was applied topically to full thickness human skin explants and cultured for 24 hours. Frozen sections were analysed by fluorescence microscopy.
RP23^AF594 was formulated for topical application in an adapted stock emulsion consisting of dimethicone, liquid paraffin, 4-chloro-3-methylphenol, cetrimide and octadecan-1-ol. This was applied topically (7 mg/cm^2, 10 nmol RP23) to full thickness human skin explants and cultured for 24 hours. Frozen sections were prepared for and analysed by fluorescence microscopy.

## CSCC[C@H](NC(=O)COCCOCCNC(=O)[C@H](CCCCN)NC(=O)[C@H](CCCCN)NC(=O)[C@H](CCCCN)NC(=O)[C@@H](N)CCCCN)C(=O)N[C@H](C(=O)N1CCC[C@H]1C(=O)NCC(=O)N[C@H](C(=O)N[C@@H](CCC(N)=O)C(=O)N[C@@H](CO)C(=O)N1CCC[C@H]1C(=O)N[C@@H](Cc1ccccc1)C(=O)N[C@@H](Cc1ccccc1)C(=O)N[C@@H](CC(C)C)C(=O)N[C@@H](CC(C)C)C(=O)N[C@@H](CC(C)C)C(=O)N[C@@H](CC(C)C)C(=O)N[C@@H](CC(C)C)C(=O)N[C@H](C(=O)N[C@H](C(=O)N[C@@H](CC(C)C)C(=O)N[C@H](C(=O)N[C@H](C(=O)N[C@H](C(=O)O)C(C)C)C(C)C)[C@@H](C)O)C(C)C)[C@@H](C)O)[C@@H](C)O)[C@@H](C)O [RP23] (H-KKKK[AEEA]MTPGTQSPFFLLLLLTVLTVV-OH)
C57BL/6 mice [1]; 10 nmol subcutaneously at the abdomen, compared to PBS (FIG. 8)
  inflammatory response (ear thickness over 72 hours): led to a reduced inflammatory response
C57BL/6 mice [1]; FIG. 3b
  immune suppression compared to SEQ ID NO: 3 (MUC1SP): without significantly altering immune suppression
C57BL/6 mice [1]; GM-CSF added to the injection (FIG. 3d)
  suppression of ear swelling with GM-CSF included: abrogated much of the suppression
C57BL/6 mice [1]; dose-response, 2, 5 or 10 nmol
  reduction in ear swelling compared to controls: up to 100%
C57BL/6 mice [1]; single nanomolar injection prior to sensitisation
  elicitation of inflammation (ear thickness): significantly suppress elicitation of inflammation
C57BL/6 mice [1]; single nanomolar injection prior to sensitisation, flow cytometry 72 hours post challenge
  inflammatory myeloid cell skin infiltrate: reduction
C57BL/6 mice [2]; FIG. 11A
  TCRαβ+ T-cells in the skin of psoriatic mice: reduction in TCRαβ+ T-cells
C57BL/6 mice [2]; inguinal lymph nodes, day 15, with or without T-bet or Rorγt
  number of FoxP3-expressing CD3+CD4+ TCRαβ T-cells in skin draining lymph nodes: significant increase
C57BL/6 mice [2]; injection day -1, day 15, proportion of CD45+ leukocytes
  proportion of total CD4+ and CD8+ T-cells in the back skin: reduced the proportion of total CD4+ and CD8+ T-cells
[3]
  penetration of human skin when topically applied: able to penetrate the stratum corneum and basement membrane

From patent US20230002446A1, “ANTI-INFLAMMATORY AGENTS” (The University of Sydney, priority 2019, published 2023)
